According to ChEMBL document CHEMBL2073829, “Heterologous expression of a mammalian ABC transporter in plant and its application to phytoremediation” (Plant Mol Biol, 2006):

Biological target: Multidrug resistance-associated protein 1 (Homo sapiens, UniProt P33527)
Assay: TP_TRANSPORTER: growth inhibition in hMRP1-expressing tobacco
Assay type: functional, organism-based, (cultivar) Samsun NN
Conditions: nicotiana tabacum, in vivo

Sequence of Multidrug resistance-associated protein 1 (P33527 whole entry): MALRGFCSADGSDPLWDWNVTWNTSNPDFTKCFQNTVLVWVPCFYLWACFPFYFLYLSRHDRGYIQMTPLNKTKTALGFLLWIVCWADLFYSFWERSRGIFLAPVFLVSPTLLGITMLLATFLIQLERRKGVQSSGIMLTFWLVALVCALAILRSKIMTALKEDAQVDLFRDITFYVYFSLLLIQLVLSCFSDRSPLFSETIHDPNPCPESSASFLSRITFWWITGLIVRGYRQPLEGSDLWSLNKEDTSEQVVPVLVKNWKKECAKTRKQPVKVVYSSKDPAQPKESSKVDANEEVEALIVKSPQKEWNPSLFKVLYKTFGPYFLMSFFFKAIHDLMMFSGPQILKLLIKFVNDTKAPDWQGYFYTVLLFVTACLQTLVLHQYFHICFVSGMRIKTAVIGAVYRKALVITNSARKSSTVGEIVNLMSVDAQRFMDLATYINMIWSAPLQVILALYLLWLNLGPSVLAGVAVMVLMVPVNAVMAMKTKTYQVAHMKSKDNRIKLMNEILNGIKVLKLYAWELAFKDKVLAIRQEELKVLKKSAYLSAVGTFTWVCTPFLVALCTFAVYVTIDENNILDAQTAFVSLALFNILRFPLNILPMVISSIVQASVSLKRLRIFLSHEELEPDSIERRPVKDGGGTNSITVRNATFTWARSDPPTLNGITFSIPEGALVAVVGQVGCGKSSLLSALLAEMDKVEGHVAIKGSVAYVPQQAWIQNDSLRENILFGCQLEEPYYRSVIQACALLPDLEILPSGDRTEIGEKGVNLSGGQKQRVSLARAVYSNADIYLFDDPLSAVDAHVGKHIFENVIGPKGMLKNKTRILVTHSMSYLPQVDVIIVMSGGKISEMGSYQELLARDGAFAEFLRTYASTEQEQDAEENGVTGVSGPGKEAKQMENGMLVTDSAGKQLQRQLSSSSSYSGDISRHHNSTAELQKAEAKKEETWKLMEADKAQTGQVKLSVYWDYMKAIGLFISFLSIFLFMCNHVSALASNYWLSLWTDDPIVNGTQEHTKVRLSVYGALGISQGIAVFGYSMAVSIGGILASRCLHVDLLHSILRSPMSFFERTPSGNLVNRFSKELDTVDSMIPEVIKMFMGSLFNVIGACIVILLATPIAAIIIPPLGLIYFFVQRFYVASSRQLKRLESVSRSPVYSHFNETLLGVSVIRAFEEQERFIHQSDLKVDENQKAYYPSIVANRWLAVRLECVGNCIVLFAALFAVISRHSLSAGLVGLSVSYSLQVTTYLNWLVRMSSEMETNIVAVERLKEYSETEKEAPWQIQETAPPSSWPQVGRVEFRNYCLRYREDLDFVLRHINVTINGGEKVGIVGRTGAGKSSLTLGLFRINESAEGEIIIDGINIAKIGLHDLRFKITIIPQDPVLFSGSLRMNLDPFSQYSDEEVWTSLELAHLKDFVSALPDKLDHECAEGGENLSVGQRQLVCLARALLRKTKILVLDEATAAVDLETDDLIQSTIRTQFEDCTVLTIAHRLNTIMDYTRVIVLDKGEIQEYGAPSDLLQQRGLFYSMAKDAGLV

CADMIUM
Activity: substrate []
